Assay results as given in ChEMBL document CHEMBL4049438, “Discovery and Optimization of Isoquinoline Ethyl Ureas as Antibacterial Agents” (J Med Chem, 2017).
Converted amounts (≈) assume the structure as drawn.

Assays:
[1] = Inhibition of Escherichia coli N-terminal His6-tagged DNA gyrase subunit GyrA/GyrB supercoiling activity expressed in Escherichia coli BL21 (DE3) using relaxed pBR322 DNA as substrate after 1 hr by agarose gel electrophoresis
[2] = Inhibition of Escherichia coli DNA topoisomerase 4 subunit ParC/ParE relaxation expressed in Escherichia coli BL21 (DE3) using supercoiled pBR322 DNA as substrate after 1 hr by agarose gel electrophoresis
[3] = Inhibition of Staphylococcus aureus topoisomerase 4 subunit ParC/ParE relaxation expressed in Escherichia coli BL21 (DE3) using supercoiled pBR322 DNA as substrate after 1 hr by agarose gel electrophoresis
Escherichia coli [4] = experiment: Antibacterial activity against TolC deficient Escherichia coli by broth microdilution method; type: functional
Staphylococcus aureus [5] = experiment: Antibacterial activity against Staphylococcus aureus ATCC 29213 by broth microdilution method; type: functional
Escherichia coli [6] = experiment: Antibacterial activity against Escherichia coli ATCC 25922 by broth microdilution method; type: functional
Staphylococcus aureus [7] = experiment: Antibacterial activity against methicillin-sensitive Staphylococcus aureus A-1178 infected in neutropenic mouse assessed as change in bacterial burden in thighs at 30 mg/kg, po administered every 2.75 hrs for 2 times measured 6.5 hrs post infection; type: functional
Staphylococcus aureus [8] = experiment: Antibacterial activity against methicillin/fluoroquinolone-resistant Staphylococcus aureus A-798 harboring topoisomerase gyrA S84L mutant/grlA S80F/Glu84V mutant by broth microdilution method; type: functional
Streptococcus pneumoniae [9] = experiment: Antibacterial activity against Streptococcus pneumoniae ATCC 49619 by broth microdilution method; type: functional
Streptococcus pneumoniae [10] = experiment: Antibacterial activity against fluoroquinolone-resistant Streptococcus pneumoniae A-70 harboring topoisomerase gyrA S81F mutant/parc S79F mutant/parE I440V mutant by broth microdilution method; type: functional
Streptococcus pyogenes = experiment: Antibacterial activity against Streptococcus pyogenes ATCC 19615 by broth microdilution method; type: functional
Enterococcus faecalis = experiment: Antibacterial activity against Enterococcus faecalis ATCC 29212 by broth microdilution method; type: functional
Enterococcus faecium = experiment: Antibacterial activity against vancomycin/fluoroquinolone-resistant Enterococcus faecium A-949 harboring topoisomerase gyrA E88K mutant/parC S80R mutant by broth microdilution method; type: functional
Moraxella catarrhalis = experiment: Antibacterial activity against Moraxella catarrhalis A-894 by broth microdilution method; type: functional
Haemophilus influenzae = experiment: Antibacterial activity against Haemophilus influenzae A-921 by broth microdilution method; type: functional
[11] = Inhibition of fluoroquinolone-resistant Staphylococcus aureus clinical isolate DNA gyrase subunit GyrB/GyrA S84L mutant supercoiling activity using relaxed pBR322 DNA as substrate after 1 hr by agarose gel electrophoresis
Staphylococcus aureus [12] = experiment: Antibacterial activity against methicillin-sensitive Staphylococcus aureus A-1178 infected in neutropenic mouse thigh infection model assessed as decrease in bacterial load in thighs administered po every 5.5 hrs for 4 times measured after 24 hrs; type: functional, organism-based
[13] = Inhibition of Streptococcus pneumoniae DNA gyrase subunit GyrA/GyrB supercoiling activity expressed in Escherichia coli BL21 (DE3) using relaxed pBR322 DNA as substrate after 1 hr mins by agarose gel electrophoresis
[14] = Inhibition of Streptococcus pneumoniae DNA topoisomerase 4 subunit ParC/ParE relaxation expressed in Escherichia coli BL21 (DE3) using supercoiled pBR322 DNA as substrate after 1 hr mins by agarose gel electrophoresis
[15] = Inhibition of Haemophilus influenzae DNA topoisomerase 4 subunit ParC/ParE relaxation expressed in Escherichia coli BL21 (DE3) using supercoiled pBR322 DNA as substrate after 1 hr mins by agarose gel electrophoresis
[16] = Inhibition of Escherichia coli DNA gyrase subunit GyrA/GyrB R136H mutant supercoiling activity expressed in Escherichia coli BL21 (DE3) using relaxed pBR322 DNA as substrate after 1 hr mins by agarose gel electrophoresis
[17] = molecular target: DNA topoisomerase 2-alpha (Homo sapiens, UniProt P11388); experiment: Inhibition of human DNA topoisomerase 2-alpha
[18] = Solubility of compound in phosphate buffer at pH 7; type: physicochemical
[19] = Solubility of compound in citrate buffer at pH 4; type: physicochemical
hERG (KCNH2) = hERG (KCNH2) (Homo sapiens, UniProt Q12809); experiment: Inhibition of human ERG expressed in CHO cells at 10 uM after 3 mins at -80 mV holding potential by Qpatch assay; type: cell-based; details: CHO cells expressing human ERG
[20] = AUC in Wistar rat at 0.5 mg/kg, iv administered as solution up to 24 hrs by LC-MS/MS analysis; type: ADME, organism-based; design: dose 0.5 mg/kg, time < 24 hr, route intravenous; details: in vivo
[21] = Clearance in Wistar rat at 0.5 mg/kg, iv administered as solution up to 24 hrs by LC-MS/MS analysis; type: ADME, organism-based; details: in vivo
[22] = Half life in Wistar rat at 0.5 mg/kg, iv administered as solution up to 24 hrs by LC-MS/MS analysis; type: ADME, organism-based; details: in vivo
[23] = Volume of distribution in steady state in Wistar rat at 0.5 mg/kg, iv administered as solution up to 24 hrs by LC-MS/MS analysis; type: ADME, organism-based; details: in vivo, read-out: Vdss
[24] = AUC in Wistar rat at 2 mg/kg, po administered as suspension up to 24 hrs by LC-MS/MS analysis; type: ADME, organism-based; design: dose 2 mg/kg, time < 24 hr, route oral; details: in vivo
[25] = Cmax in Wistar rat at 2 mg/kg, po administered as suspension up to 24 hrs by LC-MS/MS analysis; type: ADME, organism-based; design: dose 2 mg/kg, route oral; details: in vivo
[26] = Tmax in Wistar rat at 2 mg/kg, po administered as suspension up to 24 hrs by LC-MS/MS analysis; type: ADME, organism-based; details: in vivo
[27] = Oral bioavailability in Wistar rat at 2 mg/kg administered as suspension up to 24 hrs by LC-MS/MS analysis; type: ADME, organism-based; details: in vivo
[28] = Octanol-phosphate buffer partition coefficient, logD of compound at pH 7.4 by LC/UV analysis; type: physicochemical
[29] = AUC in mouse at 30 mg/kg, po after 24 hrs by LC-MS/MS analysis; type: ADME, organism-based; design: time < 24 hr, dose 30 mg/kg, route oral; details: in vivo
[30] = Protein binding to mouse plasma by rapid equilibrium dialysis method; type: ADME, cell-free; details: read-out: PPB (converted)
Mus musculus = experiment: Unbound AUC in mouse at 30 mg/kg, po after 24 hrs by LC-MS/MS analysis; type: ADME, organism-based; details: in vivo
Staphylococcus aureus [31] = experiment: Antibacterial activity against methicillin-sensitive Staphylococcus aureus A-1178 by broth microdilution method; type: functional
Staphylococcus aureus [32] = experiment: Antibacterial activity against methicillin-sensitive Staphylococcus aureus A-1178 infected in neutropenic mouse assessed as change in bacterial burden in thighs at 10 mg/kg, po administered every 2.75 hrs for 2 times measured 6.5 hrs post infection; type: functional
DNA gyrase = DNA gyrase (Staphylococcus aureus, UniProt P0A0K8+P20831)

## CCNC(=O)Nc1cc2c(-c3ccnc(C)c3)ccc(CNC(=O)OC)c2cn1
[1]
  IC50: 0.03 µM
[2]
  IC50: 8 µM
[3]
  IC50: 2 µM
Escherichia coli [4]
  MIC: 1 µg/mL (≈ 2.54 µM)
Staphylococcus aureus [5]
  MIC: 0.06 µg/mL (≈ 0.152 µM)
Escherichia coli [6]
  MIC: > 16 µg/mL
Staphylococcus aureus [7]
  Activity: -3.5 deltalog10CFU
Staphylococcus aureus [8]
  MIC: 0.06 µg/mL (≈ 0.152 µM)
Streptococcus pneumoniae [9]
  MIC: 0.5 µg/mL (≈ 1.27 µM)
Streptococcus pneumoniae [10]
  MIC: 1 µg/mL (≈ 2.54 µM)
Streptococcus pyogenes
  MIC: 0.5 µg/mL (≈ 1.27 µM)
Enterococcus faecalis
  MIC: 0.25 µg/mL (≈ 0.635 µM)
Enterococcus faecium
  MIC: 1 µg/mL (≈ 2.54 µM)
Moraxella catarrhalis
  MIC: 0.5 µg/mL (≈ 1.27 µM)
Haemophilus influenzae
  MIC: 2 µg/mL (≈ 5.08 µM)
[11]
  IC50: < 0.004 µM
Staphylococcus aureus [12]
  Activity: Dose-dependent effect
[13]
  IC50: 0.5 µM
[14]
  IC50: 0.125 µM
[15]
  IC50: 2 µM
[16]
  IC50: 0.125 µM
[17]
  IC50: > 256 µM
[18]
  solubility: 20 µg/mL (≈ 50.8 µM)
[19]
  solubility: 340 µg/mL (≈ 864 µM)
hERG (KCNH2)
  inhibition at 0.05 h, 10 µM: 67%
[20]
  AUC at 24 h: 261 ng·h/mL
[21]
  clearance: 32 mL/min/kg
[22]
  half-life: 36 min
[23]
  Vd: 0.65 L/kg
[24]
  AUC at 24 h: 319 ng·h/mL
[25]
  Cmax: 287 ng/mL
[26]
  Tmax: 15 min
[27]
  bioavailability: 30%
[28]
  logD: 3.1
[29]
  AUC at 24 h: 45300 ng·h/mL
[30]
  fraction unbound: 0.035
Mus musculus
  fAUC: 1590 ng·h/mL
Staphylococcus aureus [31]
  MIC: 0.06 µg/mL (≈ 0.152 µM)
Staphylococcus aureus [32]
  Activity: -2.5 deltalog10CFU
DNA gyrase
  IC50: 0.008 µM
